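Five compound concentrations were applied to cells in 96-well plates for 48 hours; endpoints were derived by simple linear interpolation of the resulting dose-response curve. The concentration for 50% growth inhibition is given as GI50.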 Calls of active or inactive are those of the source. Rule as the data show it: active = GI50 up to about 1.1 µM and inactive = higher.

The source of these data is ChEMBL document CHEMBL1201862, “PubChem BioAssay data set” (2004).

Test in all cases: NCI-60 cell line screen, 48 h
The subject of assay [1] is NCI-H226.
Assay [2] relates to IGROV-1.
For assay [3], the system named is NCI-H460.
The subject of assay [4] is NCI-H23.
The test system of assay [5] is UACC-257.
In assay [6] the test system is MCF7.
In assay [7] the test system is K562.
Assay [8] concerns A549.
Assay [9] relates to M14.
The subject of assay [10] is BT-549.
In assay [11] the test system is DU-145.
The subject of assay [12] is NCI/ADR-RES.
Assay [13] deals with UO-31.
Assay [14] deals with Malme-3M.
The subject of assay [15] is NCI-H522.
Assay [16] concerns CAKI-1.
Assay [17] relates to Hs-578T.
The subject of assay [18] is SK-MEL-2.
The test system of assay [19] is HT-29.

For `Cc1ccc(NC(=O)CC(=O)N2N=C(N(C)c3ccccc3)CC2c2ccccc2)cc1` (configuration not stated), the GI50 in assay [1], in [2], in assay [3], in assay [4], in assay [5] and in assay [6] was > 100 µM (inactive) in each case. Also, the GI50 in assay [7], in assay [8], in assay [9], in assay [10], in assay [11] and in assay [12] was > 100 µM (inactive) in each case. The GI50 in assay [13], in assay [14], in assay [15], in assay [16], in assay [17] and in assay [18] was > 100 µM (inactive) throughout. Besides, the GI50 in [19] is > 100 µM (inactive).
For the compound `CC(=O)Oc1c2c(c(CC=C(C)C)c3c1C(=O)C1=C[C@@H]4CC5C(C)(C)OC(C/C=C(/C)C(=O)O)(C4=O)[C@@]15O3)OC(C)(CCC=C(C)C)C=C2` (some centres not stated), the GI50 is 0.313 µM (active) in assay [1]; 0.0998 µM (active) in assay [2]; 0.486 µM (active) in [3]; 0.197 µM (active) in [4]; 0.384 µM (active) in assay [5]; 0.173 µM (active) in [6]. The GI50 in assay [7] was 0.409 µM (active); in [8], 0.188 µM (active); in assay [9], 0.282 µM (active); in assay [10] it was 0.205 µM (active); in assay [11], 0.287 µM (active); in assay [12], 0.525 µM (active). Moreover, the GI50 is 0.173 µM (active) in assay [13]; 0.29 µM (active) in assay [14]; 0.0796 µM (active) in assay [15]; 0.174 µM (active) in [16]; 0.337 µM (active) in assay [17]; 0.305 µM (active) in assay [18]. Further, the GI50 in assay [19] is 0.19 µM (active).
`c1nnc(NCNc2nncs2)s1`: the GI50 is > 100 µM (inactive) in assay [1]; 49.1 µM (inactive) in assay [2]; 6.18 µM (inactive) in assay [3]; 47.9 µM (inactive) in [4]; 47.8 µM (inactive) in [5]; 38.5 µM (inactive) in [6]. For the same compound, the GI50 in assay [7] was 42.8 µM (inactive); in assay [8], 23.6 µM (inactive); in [9], 43.1 µM (inactive); in assay [10], > 100 µM (inactive); in assay [11], 16 µM (inactive); in assay [12] it was > 100 µM (inactive). Moreover, the GI50 in assay [13] was 53.3 µM (inactive); in assay [14] it was > 100 µM (inactive); in assay [15], 48.1 µM (inactive); in [16] it was 9.48 µM (inactive); in [17], > 100 µM (inactive); in assay [18], 68.9 µM (inactive). Further, the GI50 in assay [19] was 19.1 µM (inactive).
`CCOc1cc(NC(C)=O)ccc1C(=O)N/N=C/c1ccco1`: the GI50 is > 100 µM (inactive) in assay [1]; 94 µM (inactive) in assay [2]; 24.5 µM (inactive) in assay [3]; > 100 µM (inactive) in [4]; > 100 µM (inactive) in assay [5]; 22.3 µM (inactive) in [6]. Besides, the GI50 in assay [7] was 4.05 µM (inactive); in [10], > 100 µM (inactive); in assay [11], > 100 µM (inactive); in assay [12], > 100 µM (inactive); in assay [14], > 100 µM (inactive); in assay [15], > 100 µM (inactive). Further, the GI50 is 76.6 µM (inactive) in assay [16], > 100 µM (inactive) in assay [17], > 100 µM (inactive) in assay [18] and > 100 µM (inactive) in [19].
`Cc1c(O)nc(/C=C/C(=O)O)nc1C(=O)O`: the GI50 in assay [1], in [2], in assay [3], in assay [4], in assay [5] and in assay [6] was > 100 µM (inactive) throughout. The GI50 in assay [7], in [8], in assay [9], in [10], in [11] and in [12] was > 100 µM (inactive) each time. For the same compound, the GI50 in [13], in assay [14], in [15], in [16], in [17] and in [18] was > 100 µM (inactive) in each case. Moreover, the GI50 in assay [19] is > 100 µM (inactive).
Regarding `C(=N\c1nc2cc3sc(/N=C/c4ccccc4)nc3cc2s1)/c1ccccc1`, the GI50 is 20.7 µM (inactive) in assay [1]; > 63.2 µM (inactive) in assay [2]; 7.52 µM (inactive) in assay [3]; 39 µM (inactive) in assay [4]; > 100 µM (inactive) in assay [5]; 20.8 µM (inactive) in assay [6]. Also, the GI50 in assay [7] was 29.1 µM (inactive); in assay [8] it was 9.66 µM (inactive); in [9], > 100 µM (inactive); in assay [10], 54.2 µM (inactive); in assay [11] it was > 66.5 µM (inactive); in assay [12] it was > 80.4 µM (inactive). Further, the GI50 in assay [13] was 62.5 µM (inactive); in [14], > 65.3 µM (inactive); in assay [15], 17.1 µM (inactive); in assay [16], > 79.4 µM (inactive); in assay [17], > 45.9 µM (inactive); in assay [18], > 100 µM (inactive). The GI50 in assay [19] was 37.1 µM (inactive).
On to `O=C(CCc1ccc(O)cc1)NCCc1ccc(O)cc1`, for which the GI50 in assay [1], in assay [2], in assay [3], in [4], in [5] and in assay [6] was > 100 µM (inactive) in each case. For the same compound, the GI50 in assay [7] was > 100 µM (inactive); in [8], > 100 µM (inactive); in assay [9], > 100 µM (inactive); in [10], 62.4 µM (inactive); in [11], > 100 µM (inactive); in assay [12], > 100 µM (inactive). Besides, the GI50 in [13], in assay [14], in [15], in [16], in assay [17] and in [18] was > 100 µM (inactive) in each case. Besides, the GI50 in [19] was > 100 µM (inactive).
Regarding `CC(=O)OCC(OC(C)=O)C(OC(C)=O)C(OC(C)=O)C(C=NN(C(C)=O)S(=O)(=O)c1ccc(/C=C2\NC(=O)NC2=O)cc1)OC(C)=O` (configuration not stated), the GI50 in assay [1], in assay [2], in [3], in assay [4], in assay [5] and in assay [6] was > 100 µM (inactive) throughout. In addition, the GI50 in [7], in assay [8], in assay [9], in assay [10], in assay [11] and in [12] was > 100 µM (inactive) in each case. Besides, the GI50 in assay [13], in assay [14], in assay [15], in [16], in assay [17] and in assay [18] was > 100 µM (inactive) throughout. Also, the GI50 in assay [19] was > 100 µM (inactive).
With `COc1ccc2[nH]c3c(c2c1)COc1ccccc1C3=O`, the GI50 in assay [1], in assay [2], in assay [3], in assay [4], in assay [5] and in assay [6] was > 100 µM (inactive) in each case. Moreover, the GI50 in assay [7] was > 100 µM (inactive); in [8], > 100 µM (inactive); in assay [9], > 100 µM (inactive); in assay [10], 37.1 µM (inactive); in assay [11], > 100 µM (inactive); in assay [12], > 100 µM (inactive). The GI50 in assay [13] is > 100 µM (inactive); in [14], > 100 µM (inactive); in [15], > 100 µM (inactive); in assay [16] it was > 100 µM (inactive); in assay [17], 69 µM (inactive); in [18], 34.8 µM (inactive). Also, the GI50 in assay [19] is > 100 µM (inactive).
`O=C1c2cccc3cc([N+](=O)[O-])cc(c23)C(=O)N1Nc1ccc([N+](=O)[O-])cc1[N+](=O)[O-]`: the GI50 in assay [1] is 14.5 µM (inactive); in assay [2], 12.4 µM (inactive); in assay [3], 7.41 µM (inactive); in assay [4], 17.9 µM (inactive); in [5], 13.3 µM (inactive); in [6], 14.5 µM (inactive). For the same compound, the GI50 is 4.29 µM (inactive) in [7]; 16.3 µM (inactive) in assay [8]; 24.7 µM (inactive) in assay [9]; 19.4 µM (inactive) in [10]; 40.8 µM (inactive) in [11]; 19.1 µM (inactive) in [12]. In addition, the GI50 in assay [13] is 12.1 µM (inactive); in [14] it was 20.1 µM (inactive); in [15], 11.6 µM (inactive); in assay [16], 15.1 µM (inactive); in [17], > 31.6 µM (inactive); in [18] it was > 100 µM (inactive). Moreover, in assay [19], the GI50 is 12.9 µM (inactive).
